Here are results for four compounds from patent publication US20230167120A1, “ARYL-FUSED ISOSELENAZOLE COMPOUND CONTAINING TETRAZINE SUBSTITUENT, SYNTHESIS METHOD THEREFOR, AND USE THEREOF” (KEAISE MEDICINE WUHAN CORP., priority 2020, published 2023).

Molecules are shown by their SMILES.

Assay [1] relates to human glioma cell U87. Description: Tumor volume inhibition rate, i.v. dosing. Format: in vivo, Balb/c nude mice. The conditions noted are these: Mus musculus, iv, TMZ 10 mg·kg^−1, i.v. On the procedure: In addition, low-dosage 0409 (20 mg·kg^−1, i.v.) and TMZ (10 mg·kg^−1, i.v.) were synchronously used for an assay to determine the volume tumor inhibition rate.
Assay [2] has as its system human glioma cells (LN229). Briefly: In-vitro growth inhibition, MTT method, LN229. In kind it is cell-based. The conditions noted are these: LN-229, 48 h. On the procedure:
(§1) The in-vitro growth inhibitory activity of compounds 1 to 8 of the present disclosure against human glioma cells (U87 and LN229), human hepatoma cells (SMMC-7721) and human pancreatic carcinoma cells (Panc1) was studied adopting the MTT method.
(§2) U87, LN229, SMMC-7721 and Panc1 cells growing at log phase were separately inoculated into a 96-well plate at a density of 5×10^4 cells/mL, 180 μL/well. After the cells were attached to the wall, 20 μL of a drug liquid was added to each well, so that the final concentrations of the drug were 0 μM, 5 μM, 10 μM, 20 μM and 50 μM. After 48 h of action, a 5 mg/mL MTT solution (20 μL/well) was added. After the cells were incubated in a CO2 incubator for 3 to 4 h, the supernatant was carefully discarded. After the residual liquid was air-dried, acidified isopropanol (50 μL of concentrated hydrochloric acid dissolved in 500 mL of isopropanol) was added at […], and the plate was shaken on a shaker for 30 min. After the crystals were completely dissolved, absorbance OD values were measured by a microplate reader at 570 nm.
(§3) Cell viability %=(drug-treated cell OD−blank group OD)/(control cell OD−blank group OD)×100
(§4) Cell killing rate %=1−cell viability %
(Tetrazolium assays rely on reduction of a dye to a coloured formazan, in cell work by metabolically active cells.)

A further assay concerns human glioma cells (U87). Briefly: In-vitro growth inhibition, MTT method, U87. In kind it is cell-based. The conditions noted are these: Glioma cell, 48 h. On the procedure:
as §1
as §2, with “After the cells were attached to the wall, 20 μL of a drug liquid was added to each well, so that the final concentrations of the drug were 0 μM, 5 μM, 10 μM, 20 μM and 50 μM.” left out
as §3, §4

Assay [3] concerns human pancreatic carcinoma cells (Panc1). Description: In-vitro growth inhibition, MTT method, Panc1. The settings on record: PANC-1, 48 h. Format: cell-based. On the procedure:
as §1, §2, §3, §4

For assay [4], the system named is U251MG human glioma cells. Description: In-vitro anti-cancer activity screening, SRB method, U251MG. In kind it is cell-based. The settings on record: U-251. On the procedure:
(§5) Referring to the method of example 9, two tumor cell lines, U251MG and U251TR human glioma cells, were selected, and temozolomide and the compounds of the present disclosure were subjected to in-vitro anti-cancer activity screening using the SRB method.
A general note: In SRB staining, fixed cells bind dye roughly in proportion to their protein.

The subject of assay [5] is human glioma cell U87. Description: In-vivo antitumor activity, U87 tumor-bearing nude mice, i.g. dosing. Also on record: species or system Balb/c nude mice. The settings on record: q.d., end of the experiment; for Tumor volume: 11 days. An excerpt:
The tumor emergence rate was 100%.
The solvent was freshly prepared when needed each day.

Assay [6] has as its system human hepatoma cells (SMMC-7721). Description: In-vitro growth inhibition, MTT method, SMMC-7721. The conditions noted are these: 48 h. In kind it is cell-based. On the procedure: as §1, §2, §3, §4
Assay [7] relates to human glioma cell U87. Briefly: Pharmacodynamic study in human glioma cell U87 subcutaneous model. Format: in vivo, Balb/c nude mice. The conditions noted are these: compounds 20 mg/Kg, q.d.×14 days. An excerpt: The route of administration was intragastric administration ([…]., q.d.×14 days).
The test system of assay [8] is U251TR human glioma cells. Description: In-vitro anti-cancer activity screening, SRB method, U251TR. The conditions noted are these: Glioma cell, drug-resistant strain. Format: cell-based. On the procedure:
as §5

The target in assay [9] is T1, thioredoxin reductase (TrxR) (Homo sapiens, UniProt Q16881).
T1 sequence (Q16881 1-649): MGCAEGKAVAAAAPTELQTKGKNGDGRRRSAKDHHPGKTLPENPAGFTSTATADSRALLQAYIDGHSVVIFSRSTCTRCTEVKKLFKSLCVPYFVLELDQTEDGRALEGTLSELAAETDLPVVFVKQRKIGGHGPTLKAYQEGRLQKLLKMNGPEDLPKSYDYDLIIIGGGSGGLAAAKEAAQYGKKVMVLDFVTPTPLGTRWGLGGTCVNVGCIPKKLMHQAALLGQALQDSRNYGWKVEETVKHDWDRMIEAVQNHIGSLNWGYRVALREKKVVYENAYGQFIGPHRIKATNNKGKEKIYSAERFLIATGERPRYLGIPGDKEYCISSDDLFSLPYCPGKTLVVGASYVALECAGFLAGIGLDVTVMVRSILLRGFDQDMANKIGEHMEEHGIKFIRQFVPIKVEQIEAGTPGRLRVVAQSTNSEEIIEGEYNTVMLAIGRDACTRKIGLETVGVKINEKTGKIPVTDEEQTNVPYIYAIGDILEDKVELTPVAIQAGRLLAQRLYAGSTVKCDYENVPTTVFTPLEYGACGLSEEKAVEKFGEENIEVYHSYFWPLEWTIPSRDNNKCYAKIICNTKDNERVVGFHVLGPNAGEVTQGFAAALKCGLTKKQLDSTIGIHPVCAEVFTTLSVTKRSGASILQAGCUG
The conditions noted are these: read-out: Inhibitory activity against thioredoxin reductase (IC50) TrxR; cellular total protein, NADPH, DTNB, 405 nm.
Procedure: The cellular total protein (i.e. thioredoxin reductase) was extracted and the concentration was determined. 30 μg of protein sample was added to a 96-well plate (3 replicate wells per concentration), and the volume was made up to 80 μL with 0.1 M sodium phosphate buffer. The protein samples were incubated in an oven at 37° C. for 30 min.
The absorbance was immediately measured at 405 nm using a microplate reader (FlexStation 3, Molecular Devices). Shaking was performed for 10 s before the first reading, and determination was performed once every 15 s, 30 times in total. The maximum reaction rate was taken as an enzymatic activity index. The experiment was independently repeated three times.

Setting [10] is: 240 h, Day 10, 20 mg·kg^−1, i.v.
The mark [11] stands for this setting: 264 h, Day 11, 20 mg·kg^−1, i.v.
[12] abbreviates: 288 h, Day 12, 20 mg·kg^−1, i.v.
The mark [13] stands for this setting: 312 h, Day 13, 20 mg·kg^−1, i.v.
[14] abbreviates: 336 h, Day 14, 20 mg·kg^−1, i.v.
Where [15] appears, read: 360 h, Day 15, 20 mg·kg^−1, i.v.
[16] abbreviates: 384 h, Day 16, 20 mg·kg^−1, i.v.
[17] abbreviates: 408 h, Day 17, 20 mg·kg^−1, i.v.
[18] abbreviates: 432 h, Day 18, 20 mg·kg^−1, i.v.
The mark [19] stands for this setting: 0409 high-dose group 90 mg·kg^−1, i.g.
Where [20] appears, read: 0409 low-dose group 45 mg·kg^−1, i.g.

As to `Cn1nnc2c(C(=O)NCCn3[se]c4ccccc4c3=O)ncn2c1=O` [Compound 1, 3,4-dihydro-3-methyl-4-oxo-N-(3(2H)-oxo-1,2-benzisoselenazol-2-yl)-ethyl-imidazo[5,1-d]-1,2,3,5-tetrazine-8-carboxamide], the inhibition in vivo (as a rule, the relative decrease from the control value, in per cent) at 20 mg/kg was found to be 74.8% in the assay with human glioma cell U87 [1] (setting [10]); 73.8% with human glioma cell U87 [1] (setting [11]); 69.8% in the assay on human glioma cell U87 [1] (setting [12]); 79.8% with human glioma cell U87 [1] (setting [13]); 81.4% in the assay on human glioma cell U87 [1] (setting [14]); 80.5% with human glioma cell U87 [1] (setting [15]). Also, the inhibition in vivo at 20 mg/kg in the assay with human glioma cell U87 [1] (setting [16]) was 78.5%; in the assay on human glioma cell U87 [1] (setting [17]) it was 82.3%; with human glioma cell U87 [1] (setting [18]) it was 81.7%. Also, the IC50 (commonly the concentration that gives 50% inhibition) in assay [2] was 14.4 ± 2.24 µM; in the assay with human glioma cells (U87) it was 21 ± 3.07 µM; in assay [3], 17.8 ± 3.44 µM; in [4], 48.9 ± 9.33 µM; in assay [6], 12 ± 1.57 µM; in [8], 51.9 ± 21.9 µM. The Tumor volume with human glioma cell U87 [5] (setting [19]) worked out at 90.00±32.64 mm^3; in the assay with human glioma cell U87 [5] (setting [20]), 96.70±24.08 mm^3. Also, the “Tumor proliferation inhibition rate” value in the assay with human glioma cell U87 [5] (setting [19]) is listed as 83.97%; in the assay with human glioma cell U87 [5] (setting [20]), 82.78%. Besides, the Tumor weight amounted to 0.12 ± 0.04 g in the assay with human glioma cell U87 [5] (setting [19]) and 0.20 ± 0.10 g in the assay with human glioma cell U87 [5] (setting [20]). Further, the Tumor inhibition rate in the assay on human glioma cell U87 [7] (Day 1) stood at 5.86%; with human glioma cell U87 [7] (Day 4), 58.78%; with human glioma cell U87 [7] (Day 7) it was 78.57%; with human glioma cell U87 [7] (Day 10), 74.77%; in the assay on human glioma cell U87 [7] (Day 14 (end of the experiment)), 81.42%.

Regarding `O=c1c2ccccc2[se]n1CCCCn1[se]c2ccccc2c1=O` [BS, Butaselen], in assay [9], the IC50 came to 1.14 ± 0.17 µM.

Regarding `Cc1ccc2[se]n(CCNC(=O)c3ncn4c(=O)n(C)nnc34)c(=O)c2c1` [Compound 6, 3,4-dihydro-3-methyl-4-oxo-N-(3(2H)-oxo-5-methyl-1,2-benzisoselenazol-2-yl)-ethyl-imidazo[5,1-d]-1,2,3,5-tetrazine-8-carboxamide], the inhibition in vivo at 20 mg/kg with human glioma cell U87 [1] (setting [10]) came out at 91.5%; in the assay with human glioma cell U87 [1] (setting [11]) it was 91.6%; in the assay on human glioma cell U87 [1] (setting [12]), 90.1%; with human glioma cell U87 [1] (setting [13]), 88.5%; in the assay on human glioma cell U87 [1] (setting [14]), 88%; in the assay with human glioma cell U87 [1] (setting [15]), 88.9%. Also, the inhibition in vivo at 20 mg/kg with human glioma cell U87 [1] (setting [16]) came out at 87.5%; with human glioma cell U87 [1] (setting [17]), 88.5%; with human glioma cell U87 [1] (setting [18]), 88.3%. Moreover, the half-maximal inhibitory concentration (IC50) in assay [2] was found to be 11.3 ± 0.82 µM; with human glioma cells (U87), 19.2 ± 3.77 µM; in [3], 29.3 ± 0.42 µM; in assay [4], 1.26 ± 0.83 µM; in [6], 11.2 ± 2.11 µM; in assay [8], 29.4 ± 3.21 µM. Besides, the Tumor inhibition rate in the assay on human glioma cell U87 [7] (Day 1) stood at 9.05%; in the assay on human glioma cell U87 [7] (Day 4) it was 68.76%; in the assay on human glioma cell U87 [7] (Day 7) it was 84.09%; with human glioma cell U87 [7] (Day 10), 86.55%; in the assay with human glioma cell U87 [7] (Day 14 (end of the experiment)) it was 92.48%.

With `Cn1nnc2c(C(=O)NCCn3[se]c4cc(F)ccc4c3=O)ncn2c1=O` [Compound 3, 3,4-dihydro-3-methyl-4-oxo-N-(3(2H)-oxo-6-fluoro-1,2-benzisoselenazol-2-yl)-ethyl-imidazo[5,1-d]-1,2,3,5-tetrazine-8-carboxamide], the inhibition in vivo at 20 mg/kg with human glioma cell U87 [1] (setting [10]) was 57.9%; in the assay on human glioma cell U87 [1] (setting [11]) it was 67.1%; with human glioma cell U87 [1] (setting [12]) it was 68.4%; in the assay with human glioma cell U87 [1] (setting [13]) it was 58.8%; in the assay with human glioma cell U87 [1] (setting [14]), 72.3%; in the assay with human glioma cell U87 [1] (setting [15]) it was 72.7%. Also, the inhibition in vivo at 20 mg/kg in the assay on human glioma cell U87 [1] (setting [16]) amounted to 78.6%; in the assay with human glioma cell U87 [1] (setting [17]) it was 74.8%; in the assay on human glioma cell U87 [1] (setting [18]) it was 73.8%. The half-maximal inhibitory concentration (IC50) in assay [2] came to 19 ± 1.3 µM; with human glioma cells (U87), 20.4 ± 7.19 µM; in assay [3] it was 7 ± 8.3 µM; in [4], 15.4 ± 1.25 µM; in assay [6], 25.4 ± 7.19 µM; in assay [8], 35.5 ± 4.97 µM. In addition, the Tumor inhibition rate with human glioma cell U87 [7] (Day 1) is listed as −9.91%; in the assay with human glioma cell U87 [7] (Day 4), 47.90%; with human glioma cell U87 [7] (Day 7), 87.76%; in the assay with human glioma cell U87 [7] (Day 10), 91.47%; in the assay with human glioma cell U87 [7] (Day 14 (end of the experiment)), 88.01%.
